Results from US20210259246A1, “SUBSTITUTED 4-HETEROARYLOXYPYRIDINES AND SALTS THEREOF AND THEIR USE AS HERBICIDAL AGENTS” (BAYER AKTIENGESELLSCHAFT, priority 2018, published 2021).

Tests used:
Format in all cases: in vivo
[1] = test system: Abutilon theophrasti (ABUTH); experiment: Herbicidal post-emergence action; conditions: 1280 g/ha; rated visually about 3 weeks after treatment vs untreated controls; 100% = plants have died, 0% = like control plants
Experimental: (§1) Seeds of mono- and dicotyledonous weed plants were placed in plastic pots in sandy loam soil (doubly sown with in each case one species of mono- or dicotyledonous weed plants per pot), covered with soil and cultivated in a greenhouse under controlled growth conditions. 2 to 3 weeks after sowing, the test plants were treated at the one-leaf stage. The compounds of the invention, formulated in the form of wettable powders (WP) or as emulsion concentrates (EC), were applied onto the green parts of the plants as aqueous suspension or emulsion with addition of 0.5% additive at a water application rate of 600 liters per hectare (converted). After the test plants had been kept in the greenhouse under optimum growth conditions for about 3 weeks, the activity of the preparations was rated visually in comparison to untreated controls. For example, 100% activity=the plants have died, 0% activity=like control plants. Tables B1 to B6 below show the effects of selected compounds of the general formula (I) according to Table 1 on various harmful plants and an application rate corresponding to 1280 g/ha, which were obtained by the experimental procedure mentioned above.

[2] = test system: Stellaria media (STEME); experiment: Herbicidal post-emergence action; conditions: 1280 g/ha; rated visually about 3 weeks after treatment vs untreated controls; 100% = plants have died, 0% = like control plants
Experimental: as §1

[3] = test system: Echinochloa crus-galli (ECHCG); experiment: Herbicidal post-emergence action; conditions: 1280 g/ha; rated visually about 3 weeks after treatment vs untreated controls; 100% = plants have died, 0% = like control plants
Experimental: as §1

[4] = test system: Amaranthus retroflexus (AMARE); experiment: Herbicidal post-emergence action; conditions: 1280 g/ha; rated visually about 3 weeks after treatment vs untreated controls; 100% = plants have died, 0% = like control plants
Experimental: as §1

[5] = test system: Abutilon theophrasti (ABUTH); experiment: Herbicidal pre-emergence action; conditions: 1280 g/ha; scored visually after about 3 weeks vs untreated controls; 100% = plants have died, 0% = like control plants
From the text: (§2) Seeds of mono- and dicotyledonous weed plants were placed in plastic pots in sandy loam soil (doubly sown with in each case one species of mono- or dicotyledonous weed plants per pot) and covered with soil. The compounds of the invention, formulated in the form of wettable powders (WP) or as emulsion concentrates (EC), were then applied onto the surface of the covering soil as aqueous suspension or emulsion with addition of 0.5% additive at a water application rate of 600 liters per hectare (converted). After the treatment, the pots were placed in a greenhouse and kept under good growth conditions for the test plants. After about 3 weeks, the effect of the preparations was scored visually in comparison with untreated controls as percentages. For example, 100% activity=the plants have died, 0% activity=like control plants. Tables C1 to C8 below show the effects of selected compounds of the general formula (I) according to Table 1 on various harmful plants and an application rate corresponding to 1280 g/ha, which were obtained by the experimental procedure mentioned above.

[6] = test system: Poa annua (POAAN); experiment: Herbicidal pre-emergence action; conditions: 1280 g/ha; scored visually after about 3 weeks vs untreated controls; 100% = plants have died, 0% = like control plants
From the text: as §2

[7] = test system: Lolium rigidum (LOLRI); experiment: Herbicidal pre-emergence action; conditions: 1280 g/ha; scored visually after about 3 weeks vs untreated controls; 100% = plants have died, 0% = like control plants
From the text: as §2

[8] = test system: Setaria viridis (SETVI); experiment: Herbicidal pre-emergence action; conditions: 1280 g/ha; scored visually after about 3 weeks vs untreated controls; 100% = plants have died, 0% = like control plants
From the text: as §2

[9] = test system: Stellaria media (STEME); experiment: Herbicidal pre-emergence action; conditions: 1280 g/ha; scored visually after about 3 weeks vs untreated controls; 100% = plants have died, 0% = like control plants
From the text: as §2

[10] = test system: Echinochloa crus-galli (ECHCG); experiment: Herbicidal pre-emergence action; conditions: 1280 g/ha; scored visually after about 3 weeks vs untreated controls; 100% = plants have died, 0% = like control plants
From the text: as §2

[11] = test system: Amaranthus retroflexus (AMARE); experiment: Herbicidal pre-emergence action; conditions: 1280 g/ha; scored visually after about 3 weeks vs untreated controls; 100% = plants have died, 0% = like control plants
From the text: as §2

[12] = test system: Matricaria inodora (MATIN); experiment: Herbicidal pre-emergence action; conditions: 1280 g/ha; scored visually after about 3 weeks vs untreated controls; 100% = plants have died, 0% = like control plants
From the text: as §2

[13] = test system: Lolium perenne (LOLPE); experiment: Herbicidal early post-emergence action; conditions: 1900 g/ha; scored visually 9 to 12 days after treatment vs untreated controls; 100% = plants have died, 0% = like control plants
Experimental: (§3) Seeds of monocotyledonous or dicotyledonous weed plants were placed in 96-well microtiter plates in quartz sand and grown in a climatized chamber under controlled growth conditions. 5 to 7 days after sowing, the test plants were treated at the cotyledon stage. The compounds according to the invention, formulated in the form of emulsion concentrates (EC), were applied with a water application rate of the equivalent of 2200 liters per hectare. After the test plants had been left to stand in the climatized chamber for 9 to 12 days under optimum growth conditions, the effect of the preparations was scored visually in comparison to untreated controls. For example, 100% activity=the plants have died, 0% activity=like control plants. Tables A1 to A6 below show the effects of selected compounds of the general formula (I) according to Table 1 on various harmful plants and an application rate corresponding to 1900 g/ha, which were obtained by the experimental procedure mentioned above.

[14] = test system: Agrostis tenuis (AGSTE); experiment: Herbicidal early post-emergence action; conditions: 1900 g/ha; scored visually 9 to 12 days after treatment vs untreated controls; 100% = plants have died, 0% = like control plants
Experimental: as §3

[15] = test system: Poa annua (POAAN); experiment: Herbicidal early post-emergence action; conditions: 1900 g/ha; scored visually 9 to 12 days after treatment vs untreated controls; 100% = plants have died, 0% = like control plants
Experimental: as §3

[16] = test system: Setaria viridis (SETVI); experiment: Herbicidal early post-emergence action; conditions: 1900 g/ha; scored visually 9 to 12 days after treatment vs untreated controls; 100% = plants have died, 0% = like control plants
Experimental: as §3

[17] = test system: Veronica persica (VERPE); experiment: Herbicidal early post-emergence action; conditions: 1900 g/ha; scored visually 9 to 12 days after treatment vs untreated controls; 100% = plants have died, 0% = like control plants
Experimental: as §3

[18] = test system: Diplotaxis muralis (DIPTE); experiment: Herbicidal early post-emergence action; conditions: 1900 g/ha; scored visually 9 to 12 days after treatment vs untreated controls; 100% = plants have died, 0% = like control plants
Experimental: as §3

[19] = test system: Poa annua (POAAN); experiment: Herbicidal post-emergence action; conditions: 1280 g/ha; rated visually about 3 weeks after treatment vs untreated controls; 100% = plants have died, 0% = like control plants
Experimental: as §1

[20] = test system: Setaria viridis (SETVI); experiment: Herbicidal post-emergence action; conditions: 1280 g/ha; rated visually about 3 weeks after treatment vs untreated controls; 100% = plants have died, 0% = like control plants
Experimental: as §1

SMILES	Post-emergence action against Abutilon theophrasti (ABUTH) [1] [%]	Post-emergence action against Stellaria media (STEME) [2] [%]	Post-emergence action against Echinochloa crus-galli (ECHCG) [3] [%]	Post-emergence action against Amaranthus retroflexus (AMARE) [4] [%]	Pre-emergence action against Abutilon theophrasti (ABUTH) [5] [%]	Pre-emergence action against Poa annua (POAAN) [6] [%]	Pre-emergence action against Lolium rigidum (LOLRI) [7] [%]	Pre-emergence action against Setaria viridis (SETVI) [8] [%]	Pre-emergence action against Stellaria media (STEME) [9] [%]	Pre-emergence action against Echinochloa crus-galli (ECHCG) [10] [%]	Pre-emergence action against Amaranthus retroflexus (AMARE) [11] [%]	Pre-emergence action against Matricaria inodora (MATIN) [12] [%]	Early post-emergence action against Lolium perenne (LOLPE) [13] [%]	Early post-emergence action against Agrostis tenuis (AGSTE) [14] [%]	Early post-emergence action against Poa annua (POAAN) [15] [%]	Early post-emergence action against Setaria viridis (SETVI) [16] [%]	Early post-emergence action against Veronica persica (VERPE) [17] [%]	Early post-emergence action against Diplotaxis muralis (DIPTE) [18] [%]	Post-emergence action against Poa annua (POAAN) [19] [%]	Post-emergence action against Setaria viridis (SETVI) [20] [%]
Cc1cc(Oc2ncc(Cl)cn2)c(Sc2ccc(F)c(F)c2)c(C)n1 [Example 1-27]	90	100	100	100	90	100	100	100	100	100	100	100								
Cc1nccc(Oc2ncc(Cl)cn2)c1Sc1ccc(F)cc1 [Example 1-86]													80	100	100	80	80	80		
Cc1nccc(Oc2ncc(F)cn2)c1Oc1ncc(F)cn1 [Example 1-91]									90		100	90								
COC(=O)c1cc(Oc2ncc(Cl)cn2)c(Sc2ccc(F)cc2)c(C(=O)OC)n1 [Example 1-50]														80						
Cc1cc(Oc2ncc(Cl)cn2)c(Sc2cccc(C(F)(F)F)c2)c(C)n1 [Example 1-28]		100		90		90			100		90	90							100	
Cc1cc(Oc2ncc(Cl)cn2)c(Sc2ccc(C#N)cc2)c(C)n1 [Example 1-30]		100	100		90	100	90	90	100	100	100	90							100	
Cc1cc(Oc2ncc(Cl)cn2)c(Sc2ccc(F)cc2)c(C)n1 [Example 1-26, 2,6-Dimethyl-3-(4-fluorophenylthio)-4-(5-chloropyrimidin-2-yloxy)pyridine]	100	100	100	100	100	100	100	100	100	100	100	100							100	90
